Experimental data: patent US8580790B2, “(Heterocycle/condensed piperidine)-(piperazinyl)-1-alkanone or (heterocycle/condensed pyrrolidine)-(piperazinyl)-1-alkanone derivatives and use thereof as p75 inhibitors” (Sanofi, priority 2009, dated 2013)

Experiments:
human p75^NTR receptor = molecular target: T1, human p75^NTR receptor (Homo sapiens, UniProt P08138); assay: Dimerization of the p75NTR receptor independently of its ligand (soluble p75NTR-alkaline phosphatase binding to SK-N-BE Bep 75 cells); type: cell-based; conditions: soluble p75NTR-alkaline phosphatase 10 nM, 1 h preincubation at 37° C.
T1 construct: the whole form of the human p75^NTR receptor; expressed in transfected cells; the soluble AP fusion comes from the supernatant of transiently transfected HEK293 cells
T1 sequence (P08138 29-427): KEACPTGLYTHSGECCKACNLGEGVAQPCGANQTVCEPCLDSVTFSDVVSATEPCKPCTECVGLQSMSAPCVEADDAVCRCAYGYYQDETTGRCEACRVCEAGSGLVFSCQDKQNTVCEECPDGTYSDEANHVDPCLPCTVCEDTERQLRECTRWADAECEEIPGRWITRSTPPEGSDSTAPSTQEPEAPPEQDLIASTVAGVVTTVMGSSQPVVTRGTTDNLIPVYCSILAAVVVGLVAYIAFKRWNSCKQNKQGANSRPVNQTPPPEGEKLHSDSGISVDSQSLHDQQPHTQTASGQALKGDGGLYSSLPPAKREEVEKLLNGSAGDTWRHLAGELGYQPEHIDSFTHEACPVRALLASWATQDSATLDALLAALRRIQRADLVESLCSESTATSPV
Description: (§1) The SK-N-BE parent strain (human neuroblastoma) and the Bep 75 clone, stably expressing the whole form of the human p75^NTR receptor (SK-N-BE Bep 75) are cultured conventionally in an RPMI culture medium containing FCS (5%), sodium pyruvate (1 mM) and glutamine (4 mM). For the SK-N-BE Bep 75 cells, hygromycin ([…] of medium) is added as selection agent.
Study of the dimerization of the p75^NTR receptor independently of its ligand.
The p75^NTR receptor dimerization study is carried out on a cell suspension of the SK-N-BE Bep 75 strain. The cells (2.5×10^4 cells/well) are placed in wells (96-well plate) for 24 h, and then preincubated for 1 h at 37° C. in the presence or absence of the compounds according to the invention. Supernatant is then added, this supernatant being derived from the culture of HEK293 human cells of renal origin expressing, after 48 h of transfection, and secreting a soluble form of the p75^NTR receptor (extracellular part of the receptor) coupled to an alkaline phosphatase, at the final concentration of 10 nM. The quantification of the specific binding of the soluble p75^NTR receptor to the receptor present on SK-N-BE Bep 75 cells is determined by measuring the alkaline phosphatase enzyme activity after incubation of the cells for 1 hour at 37° C. in the presence of the supernatant. After filtration and transfer of the filters into 24-well plates, the alkaline phosphatase activity is determined by adding CDP-Star chemiluminescent substrate (ready-to-use, Roche). The concentrations inhibiting 50% (Cl50) of the dimerization of the p75^NTR receptor, of the compounds according to the invention, are low and range from 10^−6 to 10^−11M.

[1] = system: human neuroblastoma strains SH-SY-5Y and SK-N-BE Bep 75; assay: Measurement of NGF-induced apoptosis (cell death detection ELISA); type: cell-based; conditions: SH-SY5Y, NGF 10 ng/ml, 48 h (SH-SY-5Y) or 24 h (SK-N-BE Bep 75), read-out: IC50 of inhibitory activity on NGF-induced apoptosis
Description: The SH-SY-5Y strain (human neuroblastoma) is cultured conventionally in a DMEM culture medium (Dulbecco's Modified Eagle's Medium) (Gibco BRL, France) containing FCS (5%) (foetal calf serum) (Boehringer Mannheim, Germany), sodium pyruvate (1 mM) and glutamine (4 mM) in culture flasks coated with collagen (Becton Dickinson, France).
as §1
The cells (human neuroblastoma strains SH-SY-5Y and SK-N-BE Bep 75) are placed in 35 mm diameter Petri dishes (Biocoat collagen I, (10^5 cells/well)) in an appropriate culture medium containing 5% of FCS, for 24 h. […] The degrees of apoptosis are measured 48 hours after the treatments in the case of the SH-SY-5Y strain, and 24 hours after in the case of the SK-N-BE Bep 75 strain, by quantification of the DNA fragment-associated cytoplasmic histones (cell death detection ELISA, Boehringer Mannheim, Germany). The degrees of apoptosis are expressed as amount of oligonucleosomes/10^5 cells. […]

IC50 (human p75^NTR receptor): 1.9 nM
SMILES: O=C(CN1CCN(c2ccc(C(F)(F)F)cn2)C(=O)C1)N1CCc2nc(-c3ccccc3)sc2C1 [compound 11, 4-[2-oxo-2-(2-phenyl-6,7-dihydro-4H-thiazolo[5,4-c]pyridin-5-yl)ethyl]-1-(5-trifluoromethylpyridin-2-yl)piperazin-2-one]
IC50 [1]: 4.46 nM
